Source: ChEMBL document CHEMBL1129522, “Inhibitors of acyl-CoA:cholesterol O-acyltransferase. 17. Structure-activity relationships of several series of compounds derived from N-chlorosulfonyl isocyanate” (J Med Chem, 1996)
Several values for one entry are separate records, joined by “and”; a condition that tells them apart may be missing. Equal entries are not always repeated.

Experiments:
[1] = biological target: T1, Sterol O-acyltransferase 1 (Rattus norvegicus) (UniProt O70536); test: Acute in vivo activity was measured by the total plasma cholesterol concentration levels(TC) at dose 50 mg/kg; format: functional, organism-based; set-up: dose 50 mg/kg
T1 sequence (whole entry): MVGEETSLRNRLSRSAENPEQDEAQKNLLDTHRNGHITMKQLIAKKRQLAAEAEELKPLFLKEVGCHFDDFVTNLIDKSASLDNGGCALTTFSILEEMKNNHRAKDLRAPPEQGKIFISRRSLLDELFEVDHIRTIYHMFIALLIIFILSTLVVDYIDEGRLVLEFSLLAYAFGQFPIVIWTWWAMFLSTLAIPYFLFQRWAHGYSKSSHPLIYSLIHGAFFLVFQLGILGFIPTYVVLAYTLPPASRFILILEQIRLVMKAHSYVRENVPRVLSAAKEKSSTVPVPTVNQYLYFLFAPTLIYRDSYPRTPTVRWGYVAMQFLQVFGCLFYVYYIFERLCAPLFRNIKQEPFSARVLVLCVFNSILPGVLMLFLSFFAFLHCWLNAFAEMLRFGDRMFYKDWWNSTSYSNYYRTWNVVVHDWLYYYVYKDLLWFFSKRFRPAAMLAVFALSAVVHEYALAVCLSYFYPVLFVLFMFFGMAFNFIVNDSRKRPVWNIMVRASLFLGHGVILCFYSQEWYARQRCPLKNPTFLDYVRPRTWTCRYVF

[2] = biological target: T2, Sterol O-acyltransferase 1 (Rattus norvegicus, UniProt O70536); test: In vitro inhibitory activity against acyl coenzyme A:cholesterol acyltransferase 1 in microsomes of rat liver
T2 sequence (O70536 whole entry): T1 sequence (whole entry)

[3] = biological target: T1, Sterol O-acyltransferase 1 (Rattus norvegicus); test: Chronic in vivo activity was measured by the total cholesterol concentration levels in cholesterol fed rats; format: functional, organism-based
[4] = biological target: T1, Sterol O-acyltransferase 1 (Rattus norvegicus); test: Chronic in vivo activity was measured by the concentration of high density lipoproteins (HDL) in cholesterol fed rats; format: functional, organism-based
[5] = biological target: T1, Sterol O-acyltransferase 1 (Rattus norvegicus); test: Chronic in vivo activity was measured by the total cholesterol concentration levels in Cholesterol-Fed Rats; format: functional, organism-based
[6] = biological target: T1, Sterol O-acyltransferase 1 (Rattus norvegicus); test: Acute in vivo activity was measured by the total plasma cholesterol concentration levels(TC) at dose 3 mg/kg; format: functional, organism-based; set-up: dose 3 mg/kg
Rattus norvegicus = test: Acute in vivo activity measured by total plasma cholesterol concentration levels (TC) at 30 mg/kg dose; format: functional

Compound | Delta TC [1] | IC50 [2] | Delta TC [3] | Delta HDL [4] | Delta TC [5] | Delta TC [6] | Delta TC (Rattus norvegicus)
CC(C)(C)c1cccc(C(C)(C)C)c1OC(=O)NS(=O)(=O)Nc1ccccc1 | -26% | 19 µM | – | – | – | – | –
CC(C)c1cccc(C(C)C)c1NC(=O)NS(=O)(=O)N(C(C)C)C(C)C | -59% | 0.24 µM | -38% | 83% | – | – | –
Cc1cc(C(C)(C)C)c(OC(=O)NS(=O)(=O)Nc2c(C(C)C)cccc2C(C)C)c(C(C)(C)C)c1 | -56% | 13.5 µM | -38% | 156% | – | – | –
Cc1cc(C(C)(C)C)c(OC(=O)NS(=O)(=O)NC(c2ccccc2)c2ccccc2)c(C(C)(C)C)c1 | -42% | 11.5 µM | -25% | 100% | – | – | –
CC(C)c1cccc(C(C)C)c1NS(=O)(=O)NC(=O)Oc1c(C(C)(C)C)cccc1C(C)(C)C | -57% | 16.8 µM | – | 200% | -28% | – | –
CCCCN(CCCC)S(=O)(=O)NC(=O)Nc1c(C(C)C)cccc1C(C)C | -66% | – | -52% and -40% | – | – | -64% and -52% | –
CC(C)c1cccc(C(C)C)c1NC(=O)NS(=O)(=O)NC1c2ccccc2-c2ccccc21 | -4% | 25 µM | – | – | – | – | –
CC(C)c1cccc(C(C)C)c1OC(=O)NS(=O)(=O)Nc1nc2ccccc2[nH]1 | 8% | 52 µM | – | – | – | – | –
CC(C)c1cccc(C(C)C)c1NC(=O)NS(=O)(=O)NCC(c1ccccc1)c1ccccc1 | -20% | 5.9 µM | – | – | – | – | –
Cc1cc(C(C)(C)C)c(OC(=O)NS(=O)(=O)Nc2ccccc2)c(C(C)(C)C)c1 | -33% | 23.4 µM | – | – | – | – | –
CC(C)c1cccc(C(C)C)c1OC(=O)NS(=O)(=O)Nc1ccccc1 | -55% | 38.1 µM | -33% | 240% | – | – | –
Cc1cc(C(C)(C)C)c(OC(=O)NS(=O)(=O)NCC(c2ccccc2)c2ccccc2)c(C(C)(C)C)c1 | -54% | 24.4 µM | -51% | 144% | – | – | –
CCCCCCCCCCCCOS(=O)(=O)NC(=O)Oc1c(C(C)(C)C)cc(C)cc1C(C)(C)C | – | 52 µM | -33% | 23% | – | -41% | -65%
CC(C)c1cccc(C(C)C)c1NC(=O)NS(=O)(=O)N(C(C)C)C(C)(C)C | – | 0.14 µM | -48% | 43% | – | -55% | -17%
COc1cccc(OC)c1OS(=O)(=O)NC(=O)Oc1c(C(C)C)cccc1C(C)C | – | > 50 µM | -62% | 208% | – | -63% | -70%
CC(C)c1cccc(C(C)C)c1OC(=O)NS(=O)(=O)NCC(c1ccccc1)c1ccccc1 | -29% | 49 µM | – | – | – | – | –
COc1cc(C(C)C)c(OC(=O)NS(=O)(=O)Oc2c(C(C)C)cccc2C(C)C)c(C(C)C)c1 | – | > 25 µM | -12% | 8% | – | 1% | -56%
CC(C)c1cccc(C(C)C)c1NS(=O)(=O)NC(=O)Oc1c(C(C)C)cccc1C(C)C | -65% | 25.8 µM | -9% | 388% | – | – | –
CC(C)c1ccc(C(C)C)c(NC(=O)NS(=O)(=O)Oc2c(C(C)C)cccc2C(C)C)c1 | – | 8.7 µM | -43% | 5% | – | -1% | -43%
CCCCCCCCN(CCCCCCCC)S(=O)(=O)NC(=O)Nc1c(C(C)C)cccc1C(C)C | – | 1.9 µM | -56% | 150% | – | -38% | -53%
CC(C)(C)c1cccc(C(C)(C)C)c1OC(=O)NS(=O)(=O)NCC(c1ccccc1)c1ccccc1 | -32% | 21.8 µM | – | – | – | – | –
CC(C)c1cc(C(C)C)c(OS(=O)(=O)NC(=O)Oc2c(C(C)C)cccc2C(C)C)c(C(C)C)c1 | – | 29 µM | -61% | 295% | – | -63% | -67%
CC(C)c1cccc(C(C)C)c1NC(=O)NS(=O)(=O)NC(c1ccccc1)c1ccccc1 | -14% | 4.1 µM | – | – | – | – | –
CC(C)(C)c1cccc(C(C)(C)C)c1OC(=O)NS(=O)(=O)NC(c1ccccc1)c1ccccc1 | -35% | 11.4 µM | – | 50% | -46% | – | –
CC(C)(C)c1cccc(C(C)(C)C)c1OC(=O)NS(=O)(=O)N(Cc1ccccc1)Cc1ccccc1 | -3% | 11 µM | – | – | – | – | –
CC(C)c1cc(C(C)(C)C)cc(C(C)C)c1OC(=O)NS(=O)(=O)Oc1c(C(C)C)cccc1C(C)C | – | 8.8 µM | -72% | 177% | – | -55% | -58%
CC(C)c1cccc(C(C)C)c1NC(=O)NS(=O)(=O)Nc1c(C(C)C)cccc1C(C)C | -54% | 11 µM | -37% | 80% | – | – | –
CC(C)c1cccc(C(C)C)c1NC(=O)NS(=O)(=O)N(Cc1ccccc1)Cc1ccccc1 | – | 2.2 µM | -28% | 183% | – | -18% | -36%
CC(C)c1cccc(C(C)C)c1NC(=O)NS(=O)(=O)N(Cc1ccccc1)C(C)C | -60% | 0.4 µM | -41% | 150% | – | – | –
CC(C)c1cccc(C(C)C)c1OC(=O)NS(=O)(=O)NC(c1ccccc1)c1ccccc1 | 46% | 10.6 µM | – | – | – | – | –
